Results reported in patent US6897211B2, “Thienodibenzoazulene compounds as tumor necrosis factor inhibitors” (Pliva-Istrazivacki Institut d.o.o., priority 2000, dated 2005).

Test system: secretion of TNF-α and IL-1
Assay: investigated tests: TNF-α and IL-1 secretion in human PBMC and mouse peritoneal macrophages in vitro, LPS-induced TNF-α/IL-1 secretion in mice, writhing test, LPS-induced shock in mice
Conditions: tests not specified per compound; active = IC-50 20 μM or lower (human PBMC), 10 μM or lower (mouse macrophages), 30% or higher TNF-α inhibition at 10 mg/kg p.o., analgetic activity same or better than acetyl salicylic acid, 40% or better survival at 30 mg/kg

| Compound | activity in at least two investigated tests |
| --- | --- |
| CN(C)CCCOCc1cc2c(s1)-c1ccccc1Oc1ccccc1-2.Cl [Example 1, Dimethyl-[3-(8-oxa-1-thia-dibenzo[e,h]azulene-2-ylmethoxy)-propyl]-amine hydrochloride] | activity in at least two investigated tests |
| Cl.c1ccc2c(c1)Oc1ccccc1-c1sc(COCCN3CCCC3)cc1-2 [Example 5, 1-[2-(8-oxa-1-thia-dibenzo[e,h]azulene-2-ylmethoxy)-ethyl]-pyrrolidine hydrochloride] | activity in at least two investigated tests |
| Cl.Fc1ccc2c(c1)-c1sc(COCCN3CCCCC3)cc1-c1ccccc1O2 [Example 19, 1-[2-(11-fluoro-8-oxa-1-thia-dibenzo[e,h]azulene-2-ylmethoxy)-ethyl]-piperidine hydrochloride] | activity in at least two investigated tests |
| CN(C)CCCOCc1cc2c(s1)-c1ccccc1Sc1ccccc1-2.Cl [Example 21, [3-(1,8-dithia-dibenzo[e,h]azulene-2-ylmethoxy)-propyl]-dimethylamine hydrochloride] | activity in at least two investigated tests |

Test system: not given
Assay: not given
Conditions: not given

| melting point [°C] | Compound |
| --- | --- |
| 131 to 133 | CN(C)CCOCc1cc2c(s1)-c1ccccc1Oc1ccccc1-2.Cl |
| 157 to 158 | Cl.c1ccc2c(c1)Oc1ccccc1-c1sc(COCCN3CCOCC3)cc1-2 |
| 117 to 123 | Cl.c1ccc2c(c1)Oc1ccccc1-c1sc(COCCN3CCCCC3)cc1-2 |
| 120 to 122 | CN(C)CCCOCc1cc2c(s1)-c1ccccc1Oc1ccccc1-2.Cl [Example 1, Dimethyl-[3-(8-oxa-1-thia-dibenzo[e,h]azulene-2-ylmethoxy)-propyl]-amine hydrochloride] |
| 124 to 128 | CN(C)CCCOCc1cc2c(s1)-c1cccc(Cl)c1Oc1ccccc1-2 [Example 6, [3-(9-chloro-8-oxa-1-thia-dibenzo[e,h]azulene-2-ylmethoxy)-propyl]-dimethyl-amine] |
| 122 | CN(C)CCOCc1cc2c(s1)-c1cccc(Cl)c1Oc1ccccc1-2 [Example 7, [2-(9-chloro-8-oxa-1-thia-dibenzo[e,h]azulene-2-ylmethoxy)-ethyl]-dimethyl-amine] |
